This is an account of results in patent US20260274892A1, “MACROCYCLIC BROAD SPECTRUM ANTIBIOTICS” (RQx Pharmaceuticals, Inc., priority 2017, published 2026).

Assay [1] relates to Methicillin Resistant Staphylococcus aureus strain USA 200. The experiment in a line: Minimum inhibitory concentration (MIC), CLSI broth micro-dilution, S. aureus. The format is cell-based. As to conditions: Table 6, MRSA USA 200, cation adjusted Mueller Hinton Broth + 0.002% Tween-80, 35° C., 22 hours. The essentials: (§1)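 Colonies grown 20 h at 35° C on Trypticase Soy agar (MRSA) or Luria agar (E. coli) were suspended in cation-adjusted Mueller Hinton broth with 0.002% Tween-80. Suspensions were added at OD600 0.0005 to 10-point twofold compound dilutions, then incubated 22 h at 35° C.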
(Broth dilution looks for growth in wells or tubes with falling amounts of substance.)

Assay [2] relates to Escherichia coli ATCC 25922. The experiment in a line: Minimum inhibitory concentration (MIC), CLSI broth micro-dilution, E. coli. It counts as cell-based. Particulars: Table 6, cation adjusted Mueller Hinton Broth + 0.002% Tween-80, 35° C. In outline:
as §1

Where [3] appears, read: Staphylococcus aureus, MRSA / USA200.
[4] abbreviates: Escherichia coli, ATCC25922, 22 h.

Each structure is given as a SMILES string.

Usually MIC stands for the lowest concentration that inhibits growth of the organism. As to `CCCCCCCc1ccc(C(=O)N[C@@H](CCN)C(=O)N(C)[C@@H]2C(=O)N[C@@H](CC)C(=O)N[C@H](C(=O)NCC#N)Cc3ccc(OCCN)c(c3)-c3cc2ccc3OCCN)c(C)c1` (racemic) [Compound 479, rac-(8S,11S,14S)-3,18-bis(2-aminoethoxy)-N-(cyanomethyl)-11-ethyl-14-[methyl-[rac-(2S)-4-amino-2-[(4-heptyl-2-methyl-benzoyl)amino]butanoyl]amino]-10,13-dioxo-9,12-diazatricyclo[13.3.1.12,6]icosa-1(18),2(20),3,5,15(19),16-hexaene-8-carboxamide], the MIC in assay [1] (setting [3]) was 0.027 µM; in assay [2] (setting [4]) it was 0.77 µM.

For the molecule `CCCCCCCc1ccc(C(=O)N[C@@H](CCN)C(=O)N[C@@H]2C(=O)N[C@@H](CC)C(=O)N[C@H](C(=O)NCC#N)Cc3ccc(OCCN)c(c3)-c3cc2ccc3OCCN)c(C)c1` (racemic) [Compound 480, rac-(8S,11S,14S)-3,18-bis(2-aminoethoxy)-N-(cyanomethyl)-11-ethyl-10,13-dioxo-14-[[rac-(2S)-4-amino-2-[(4-heptyl-2-methyl-benzoyl)amino]butanoyl]amino]-9,12-diazatricyclo[13.3.1.12,6]icosa-1(18),2(20),3,5,15(19),16-hexaene-8-carboxamide], the MIC came to 0.061 µM in assay [1] (setting [3]) and 1.6 µM in assay [2] (setting [4]).

With `CCCCCCCCCCCCCC(=O)N1C[C@H](N)CC1C(=O)N(C)[C@@H]1C(=O)N[C@@H](C)C(=O)N[C@H](C(=O)NCC#N)Cc2ccc(OCCN)c(c2)-c2cc1ccc2OCCN` (mixture of isomers) [Compound 482, rac-(8S,11S,14S)-3,18-bis(2-aminoethoxy)-14-[(4-amino-1-tetradecanoyl-pyrrolidine-2-carbonyl)-methyl-amino]-N-(cyanomethyl)-11-methyl-10,13-dioxo-9,12-diazatricyclo[13.3.1.12,6]icosa-1(18),2(20),3,5,15(19),16-hexaene-8-carboxamide], the minimum inhibitory concentration (MIC) in assay [1] (setting [3]) came to 0.036 µM; in assay [2] (setting [4]), 0.24 µM.

For `CCCCCCCCCCCCCC(=O)N1C[C@H](N)CC1C(=O)N(C)[C@@H]1C(=O)N[C@@H](C)C(=O)N[C@H](C(=O)NCC#N)Cc2ccc(OCCN)c(c2)-c2cc1ccc2OCCN` (mixture of isomers) [Compound 483, rac-(8S,11S,14S)-3,18-bis(2-aminoethoxy)-14-[(4-amino-1-tetradecanoyl-pyrrolidine-2-carbonyl)-methyl-amino]-N-(cyanomethyl)-11-methyl-10,13-dioxo-9,12-diazatricyclo[13.3.1.12,6]icosa-1(18),2(20),3,5,15(19),16-hexaene-8-carboxamide], the MIC was 0.036 µM in assay [1] and 0.29 µM in assay [2] (22 hours).

Take `Cc1nc(-c2ccc(C(C)(C)C)cc2)nc(C)c1C(=O)N[C@@H](COCCN)C(=O)N(C)[C@@H]1C(=O)N[C@@H](C)C(=O)N[C@H](C(=O)NCC#N)Cc2ccc(OCCN)c(c2)-c2cc1ccc2OCCN` (racemic) [Compound 495, rac-(8S,11S,14S)-3,18-bis(2-aminoethoxy)-N-(cyanomethyl)-11-methyl-14-[methyl-[rac-(2S)-3-(2-aminoethoxy)-2-[[2-(4-tert-butylphenyl)-4,6-dimethyl-pyrimidine-5-carbonyl]amino]propanoyl]amino]-10,13-dioxo-9,12-diazatricyclo[13.3.1.12,6]icosa-1(18),2(20),3,5,15(19),16-hexaene-8-carboxamide]: the MIC in assay [1] (setting [3]) worked out at 0.031 µM; in assay [2] (setting [4]) it was 1 µM.

Turning to `Cc1nc(-c2ccc(OC3CCCCC3)cc2)nc(C)c1C(=O)N[C@@H](CCC(N)=O)C(=O)N(C)[C@@H]1C(=O)N[C@@H](C)C(=O)N[C@H](C(=O)NCC#N)Cc2ccc(OCCN)c(c2)-c2cc1ccc2OCCN` (racemic) [Compound 505, rac-(2S)-2-[[2-[4-(cyclohexoxy)phenyl]-4,6-dimethyl-pyrimidine-5-carbonyl]amino]-N-methyl-N-[rac-(7S,10S,13S)-3,18-bis(2-aminoethoxy)-13-(cyanomethylcarbamoyl)-10-methyl-8,11-dioxo-9,12-diazatricyclo[13.3.1.12,6]icosa-1(19),2,4,6(20),15,17-hexaen-7-yl]pentanediamide], the MIC in assay [1] (setting [3]) was 0.094 µM; in assay [2] (setting [4]) it was 1.5 µM.

`CCCCCc1ccc(-c2nc(C)c(C(=O)N[C@@H](CCN)C(=O)N(C)[C@@H]3C(=O)N[C@@H](C)C(=O)N[C@H](C(=O)NCC#N)Cc4ccc(OCCN)c(c4)-c4cc3ccc4OCCN)c(C)n2)cc1` (racemic) [Compound 513, rac-(8S,11S,14S)-3,18-bis(2-aminoethoxy)-N-(cyanomethyl)-11-methyl-14-[methyl-[rac-(2S)-4-amino-2-[[4,6-dimethyl-2-(4-pentylphenyl)pyrimidine-5-carbonyl]amino]butanoyl]amino]-10,13-dioxo-9,12-diazatricyclo[13.3.1.12,6]icosa-1(18),2(20),3,5,15(19),16-hexaene-8-carboxamide]: the MIC in assay [1] (setting [3]) was found to be 0.0061 µM; in assay [2] (setting [4]), 0.097 µM.

For `CCc1ccc(-c2nc(C)c(C(=O)N[C@@H](CCN)C(=O)N(C)[C@@H]3C(=O)N[C@@H](C)C(=O)N[C@H](C(=O)NCC#N)Cc4ccc(O)c(c4)-c4cc3ccc4OCCN)c(C)n2)cc1` (racemic) [Compound 516, rac-(8S,11S,14S)-18-(2-aminoethoxy)-N-(cyanomethyl)-3-hydroxy-11-methyl-14-[methyl-[rac-(2S)-4-amino-2-[[2-(4-ethylphenyl)-4,6-dimethyl-pyrimidine-5-carbonyl]amino]butanoyl]amino]-10,13-dioxo-9,12-diazatricyclo[13.3.1.12,6]icosa-1(18),2(20),3,5,15(19),16-hexaene-8-carboxamide], the MIC in assay [1] (setting [3]) came out at 0.19 µM; in assay [2] (setting [4]) it was 2 µM.

As for `CC(=O)NCCOc1ccc2cc1-c1cc(ccc1OCCN)[C@H](N(C)C(=O)[C@H](CCN)NC(=O)c1c(C)nc(-c3ccc(C(C)(C)C)cc3)nc1C)C(=O)N[C@@H](C)C(=O)N[C@H](C(=O)NCC#N)C2` (racemic) [Compound 517, rac-(8S,11S,14S)-3-(2-acetamidoethoxy)-18-(2-aminoethoxy)-N-(cyanomethyl)-11-methyl-14-[methyl-[rac-(2S)-4-amino-2-[[2-(4-tert-butylphenyl)-4,6-dimethyl-pyrimidine-5-carbonyl]amino]butanoyl]amino]-10,13-dioxo-9,12-diazatricyclo[13.3.1.12,6]icosa-1(18),2(20),3,5,15(19),16-hexaene-8-carboxamide], the MIC in assay [1] (setting [3]) was 0.19 µM; in assay [2] (setting [4]), 0.75 µM.

In the case of `CCCCCOc1ccc(-c2nc(C)c(C(=O)N[C@@H](CCN)C(=O)N(C)[C@@H]3C(=O)N[C@@H](C)C(=O)N[C@H](C(=O)NCC#N)Cc4ccc(O)c(c4)-c4cc3ccc4OCCN)c(C)n2)cc1` (racemic) [Compound 518, rac-(8S,11S,14S)-18-(2-aminoethoxy)-N-(cyanomethyl)-3-hydroxy-11-methyl-14-[methyl-[rac-(2S)-4-amino-2-[[4,6-dimethyl-2-(4-pentoxyphenyl)pyrimidine-5-carbonyl]amino]butanoyl]amino]-10,13-dioxo-9,12-diazatricyclo[13.3.1.12,6]icosa-1(18),2(20),3,5,15(19),16-hexaene-8-carboxamide], the figures for the MIC in assay [1] (setting [3]) and in assay [2] (setting [4]) were 0.028 µM and 0.16 µM, respectively.

Regarding `CCCCCc1ccc(-c2nc(C)c(C(=O)N[C@@H](CCN)C(=O)N(C)[C@@H]3C(=O)N[C@@H](C)C(=O)N[C@H](C(=O)NCC#N)Cc4ccc(O)c(c4)-c4cc3ccc4OCCN)c(C)n2)cc1` (racemic) [Compound 521, rac-(8S,11S,14S)-18-(2-aminoethoxy)-N-(cyanomethyl)-3-hydroxy-11-methyl-14-[methyl-[rac-(2S)-4-amino-2-[[4,6-dimethyl-2-(4-pentylphenyl)pyrimidine-5-carbonyl]amino]butanoyl]amino]-10,13-dioxo-9,12-diazatricyclo[13.3.1.12,6]icosa-1(18),2(20),3,5,15(19),16-hexaene-8-carboxamide], the MIC was 0.047 µM in assay [1] (setting [3]) and 0.2 µM in assay [2] (setting [4]).

On to `Cc1nc(-c2ccc(C(C)(C)C)cc2)ncc1C(=O)N[C@@H](CCN)C(=O)N(C)[C@@H]1C(=O)N[C@@H](C)C(=O)N[C@H](C(=O)NCC#N)Cc2ccc(O)c(c2)-c2cc1ccc2OCCN` (racemic) [Compound 523, rac-(8S,11S,14S)-18-(2-aminoethoxy)-N-(cyanomethyl)-3-hydroxy-11-methyl-14-[methyl-[rac-(2S)-4-amino-2-[[2-(4-tert-butylphenyl)-4-methyl-pyrimidine-5-carbonyl]amino]butanoyl]amino]-10,13-dioxo-9,12-diazatricyclo[13.3.1.12,6]icosa-1(18),2(20),3,5,15(19),16-hexaene-8-carboxamide], for which the MIC in assay [1] (setting [3]) was determined as 0.044 µM; in assay [2] (setting [4]), 0.28 µM.

On to `Cc1nc(-c2ccc(O)cc2)ncc1C(=O)N[C@@H](CCN)C(=O)N(C)[C@@H]1C(=O)N[C@@H](C)C(=O)N[C@H](C(=O)NCC#N)Cc2ccc(OCCN)c(c2)-c2cc1ccc2OCCN` (racemic) [Compound 524, rac-(8S,11S,14S)-3,18-bis(2-aminoethoxy)-N-(cyanomethyl)-11-methyl-14-[methyl-[rac-(2S)-4-amino-2-[[2-(4-hydroxyphenyl)-4-methyl-pyrimidine-5-carbonyl]amino]butanoyl]amino]-10,13-dioxo-9,12-diazatricyclo[13.3.1.12,6]icosa-1(18),2(20),3,5,15(19),16-hexaene-8-carboxamide], for which the figures for the minimum inhibitory concentration (MIC) in assay [1] (setting [3]) and in assay [2] (setting [4]) were 0.56 µM and 4.5 µM, respectively.
